We go through three compounds from patent publication US20220117884A1, “Methods and Compostitions for Enhancing the Viability of Microneedle Pores” (priority 2007, published 2022).

The conditions of data set [1]: used in conjunction with microneedles; cited from earlier work.
For data set [2] the following is noted: hairless guinea pigs, after microneedle exposure and occlusion; cited from earlier work.
Data set [3] in a line: Transepidermal water loss (TEWL) study of microneedle pore viability with COX inhibitor gels under occlusion. Format: in vivo. To be noted: gel re-applied daily under occlusion; 5 day study, trial 2. On the procedure: Two trials were completed with subject 1 and one trial was completed with subject 2. During the initial trial, subject one was tested for 7 days with only Solaraze® Gel. 100 microneedle arrays were placed on each test site and covered with gel. The gel was then protected with an occlusive backing membrane (3M™ Scotchpak™ 9733 2.05 mil polyester film, St. Paul, Minn.) and secured to the test site with Bioclusive* tape (Johnson and Johnson Medical Ltd, Gargrave, Skipton, UK). Along with gel test sites, control sites with and without microneedle insertions were tested minus gel. The control sites were treated in the same manner with gel minus the 100 microneedle insertions. The initial trial lasted for 7 days followed by a 5 day study.
In trial 2, the same procedure was performed on a different test and control sites using each of the following gel formulations: placebo, Solaraze® Gel, 3% diclofenac, 3% celecoxib, 10% ibuprofen, 10% ketoprofen, and controls with and without microneedle treatment. Each day, the protective covering was removed, areas were blotted 3 times with a Kimwipe® (Kimberly-Clark, Roswell, Ga.) to remove gel and trapped moisture and TEWL readings were made with an RG1 Evaporimeter (cyberDERM, Broomall, Pa.). The treated areas had the formula re-applied and immediately covered to prevent closure of the microneedle created pores.

Consider `O=C1CC[C@@]2(O)[C@H]3Cc4ccc(O)c5c4[C@@]2(CCN3CC2CC2)[C@H]1O5` [naltrexone], for which, in data set [1], the “time for which steady state naltrexone concentrations remained” value was 48 h and the “time until steady state naltrexone concentrations were achieved” value was “two”. Turning to `Cl.Oc1ccc2c3c1O[C@H]1[C@H](O)CC[C@@]4(O)[C@@H](C2)N(CC2CC2)CC[C@]314` [6(3-naltrexol hydrochloride], in data set [2], the “duration of significant enhancement in microneedle pore viability compared to untreated skin” value is 48 h. As for `O=C(O)Cc1ccccc1Nc1c(Cl)cccc1Cl` [diclofenac], the “enhancement in pore viability (TEWL), microneedle-treated areas versus control areas” value in data set [3] is given as “enhanced viability of microneedle pores”.
